Measured values taken from ChEMBL document CHEMBL2169830, “Identification, synthesis, and biological evaluation of the metabolites of 3-amino-6-(3'-aminopropyl)-5H-indeno[1,2-c]isoquinoline-5,11-(6H)dione (AM6-36), a promising rexinoid lead compound for the development of cancer chemotherapeutic and chemopreventive agents” (J Med Chem, 2012).

Legend:
[1] = Cytotoxicity against human HEK293 cells assessed as cell survival at 50 uM relative to control; format: cell-based; conditions: read-out: Survival
[2] = Inhibition of TNFalpha-induced human NFkappaB activity in HEK293 cells incubated for 6 hrs followed by compound wash out measured after 5 mins by luciferase assay; format: cell-based
[3] = tested on: HEK293; assay: Inhibition of TNFalpha-induced human NFkappaB activity in HEK293 cells at 50 uM incubated for 6 hrs followed by compound wash out measured after 5 mins by luciferase assay; format: cell-based
[4] = Cytotoxicity against african green monkey COS1 cells assessed as cell survival at 50 uM relative to control; format: cell-based; conditions: chlorocebus aethiops, COS-1 cells; read-out: Survival
[5] = molecular target: T1, Retinoic acid receptor RXR-alpha (Homo sapiens) (UniProt P19793); assay: Agonist activity at human RXRalpha expressed in african green monkey COS1 cells assessed as induction of RXRE transcriptional activity at 12.5 uM after 12 hrs by luciferase reporter gene assay relative to control; format: functional, cell-based; conditions: COS-1
T1 sequence (whole entry): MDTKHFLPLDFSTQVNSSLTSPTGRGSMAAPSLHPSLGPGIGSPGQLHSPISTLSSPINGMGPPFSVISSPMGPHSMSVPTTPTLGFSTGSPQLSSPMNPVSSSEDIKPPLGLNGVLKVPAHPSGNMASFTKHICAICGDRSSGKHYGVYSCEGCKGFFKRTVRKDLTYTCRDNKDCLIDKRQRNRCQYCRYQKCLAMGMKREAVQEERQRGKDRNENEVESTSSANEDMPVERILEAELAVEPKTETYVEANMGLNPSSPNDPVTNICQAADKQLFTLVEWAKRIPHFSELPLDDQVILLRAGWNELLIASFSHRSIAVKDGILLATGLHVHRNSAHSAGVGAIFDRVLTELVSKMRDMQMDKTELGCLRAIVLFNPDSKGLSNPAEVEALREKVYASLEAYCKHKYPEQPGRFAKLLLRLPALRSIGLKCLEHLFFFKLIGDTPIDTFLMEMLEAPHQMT

[6] = Cytotoxicity against african green monkey COS1 cells assessed as cell survival at 40 uM relative to control; format: cell-based; conditions: chlorocebus aethiops, COS-1 cells; read-out: Survival
[7] = molecular target: T2, Retinoic acid receptor RXR-alpha (Homo sapiens, UniProt P19793); assay: Agonist activity at human RXRalpha expressed in african green monkey COS1 cells assessed as induction of RXRE transcriptional activity after 12 hrs by luciferase reporter gene assay; format: functional, cell-based, COS-1
T2 sequence (P19793 whole entry): T1 sequence (whole entry)

[8] = tested on: HEK293; assay: Cytotoxicity against human HEK293 cells; format: cell-based

CNCCCn1c2c(c3ccc(N)cc3c1=O)C(=O)c1ccccc1-2
viability at 50 µM [1]: 117%
IC50 [2]: 39.8 µM
inhibition [3]: 63.1%
viability at 50 µM [4]: 64.5%
fold change (FC) [5]: 8.97

CC(=O)Nc1ccc2c3c(n(CCCO)c(=O)c2c1)-c1ccccc1C3=O
viability at 50 µM [1]: 128%
inhibition [3]: 53.9%
viability at 50 µM [4]: 90.6%

C=C(c1ccc(C(=O)O)cc1)c1cc2c(cc1C)C(C)(C)CCC2(C)C [BEXAROTENE]
viability at 40 µM [6]: 74.5%

CC(=O)Nc1ccc2c3c(n(CCCN)c(=O)c2c1)-c1ccccc1C3=O
viability at 50 µM [1]: 122%
inhibition [3]: 0%
EC50 [7]: > 41.4 µM
viability at 50 µM [4]: 74.5%
fold change (FC) [5]: 3.55

Cc1ccc(S(=O)(=O)N[C@@H](Cc2ccccc2)C(=O)CCl)cc1 [TPCK]
IC50 [2]: 5.1 µM

Nc1ccc2c3c(n(CCCO)c(=O)c2c1)-c1ccccc1C3=O
viability at 50 µM [1]: 116%
inhibition [3]: 53.2%
viability at 50 µM [4]: 85.9%

CC(=O)Nc1ccc2c3c(n(CCCN)c(=O)c2c1)-c1ccccc1C3O (stereo not drawn)
viability at 50 µM [1]: 99.2%
inhibition [3]: 0%
viability at 50 µM [4]: 83.7%

CNc1ccc2c3c(n(CCCN)c(=O)c2c1)-c1ccccc1C3O (stereo not drawn)
viability at 50 µM [1]: 95%
IC50 [2]: 0.7 µM
inhibition [3]: 69.2%
viability at 50 µM [4]: 63.6%

Cc1ccc(S(=O)(=O)/C=C/C#N)cc1
IC50 [2]: 2.01 µM

NCCCn1c2c(c3ccc(N)cc3c1=O)C(O)c1ccccc1-2 (stereo not drawn)
viability at 50 µM [1]: < 50%
inhibition [3]: 53.1%
viability at 50 µM [4]: 87.5%

CNc1ccc2c3c(n(CCCNC(=O)OC(C)(C)C)c(=O)c2c1)-c1ccccc1C3=O
viability at 50 µM [1]: 68.6%
inhibition [3]: 53.9%
viability at 50 µM [4]: 94.8%

CNCCCn1c2c(c3ccc([N+](=O)[O-])cc3c1=O)C(=O)c1ccccc1-2
viability at 50 µM [1]: 79.7%
IC50 [2]: 3.7 µM
inhibition [3]: 92.4%
viability at 50 µM [4]: < 50%

CNCCCn1c2c(c3ccc(N)cc3c1=O)C(O)c1ccccc1-2 (stereo not drawn)
viability at 50 µM [1]: 90.1%
IC50 [2]: 0.6 µM
inhibition [3]: 83.7%
viability at 50 µM [4]: 84.1%

NCCCn1c2c(c3ccc([N+](=O)[O-])cc3c1=O)C(=O)c1ccccc1-2
IC50 [8]: 16.9 µM
viability at 50 µM [1]: < 50%
IC50 [2]: 2.6 µM
inhibition [3]: 80.8%
viability at 50 µM [4]: < 50%

CC(C)(C)OC(=O)NCCCn1c2c(c3ccc([N+](=O)[O-])cc3c1=O)C(=O)c1ccccc1-2
viability at 50 µM [1]: 101%
inhibition [3]: 0%
viability at 50 µM [4]: 106%

Nc1ccc2c3c(n(CCCO)c(=O)c2c1)-c1ccccc1C3O (stereo not drawn)
viability at 50 µM [1]: 118%
IC50 [2]: 49.3 µM
inhibition [3]: 57.8%
viability at 50 µM [4]: 86.9%

Nc1ccc2c3c(n(CCCCl)c(=O)c2c1)-c1ccccc1C3=O
viability at 50 µM [1]: 91.4%
inhibition [3]: 0%
viability at 50 µM [4]: 102%

CC(=O)Nc1ccc2c3c(n(CCCN=[N+]=[N-])c(=O)c2c1)-c1ccccc1C3=O
viability at 50 µM [1]: 115%
inhibition [3]: 0%
viability at 50 µM [4]: 93.1%

CN(C)c1ccc2c3c(n(CCCN)c(=O)c2c1)-c1ccccc1C3=O
viability at 50 µM [1]: 110%
IC50 [2]: 32.3 µM
inhibition [3]: 86.3%
viability at 50 µM [4]: < 50%

CNc1ccc2c3c(n(CCCNC(=O)OC(C)(C)C)c(=O)c2c1)-c1ccccc1C3O (stereo not drawn)
viability at 50 µM [1]: 90.1%
IC50 [2]: 0.4 µM
inhibition [3]: 83.4%
viability at 50 µM [4]: 67.5%

CNc1ccc2c3c(n(CCCN)c(=O)c2c1)-c1ccccc1C3=O
viability at 50 µM [1]: 99.4%
inhibition [3]: 0%
viability at 50 µM [4]: < 50%
fold change (FC) [5]: 6.09

CN(C)c1ccc2c3c(n(CCCNC(=O)OC(C)(C)C)c(=O)c2c1)-c1ccccc1C3=O
viability at 50 µM [1]: 97.6%
inhibition [3]: 25.9%
viability at 50 µM [4]: 102%

CC(C)(C)OC(=O)NCCCn1c2c(c3ccc(N)cc3c1=O)C(=O)c1ccccc1-2
viability at 50 µM [1]: 107%
inhibition [3]: 0%
viability at 50 µM [4]: 104%

O=C1c2ccccc2-c2c1c1ccc([N+](=O)[O-])cc1c(=O)n2CCCBr
viability at 50 µM [1]: 118%
inhibition [3]: 21.8%
viability at 40 µM [6]: 100%

O=C1c2ccccc2-c2c1c1ccc([N+](=O)[O-])cc1c(=O)n2CCCO
viability at 50 µM [1]: 114%
IC50 [2]: 7.3 µM
inhibition [3]: 72.8%
viability at 50 µM [4]: 91.4%

CC(=O)NCCCn1c2c(c3ccc([N+](=O)[O-])cc3c1=O)C(=O)c1ccccc1-2
viability at 50 µM [1]: 69.1%
IC50 [2]: 38.8 µM
inhibition [3]: 87.4%
viability at 50 µM [4]: 99.4%

CC(=O)NCCCn1c2c(c3ccc(N)cc3c1=O)C(=O)c1ccccc1-2
viability at 50 µM [1]: 106%
IC50 [2]: 14.4 µM
inhibition [3]: 81.8%
EC50 [7]: 20.9 µM
viability at 50 µM [4]: 75.2%
fold change (FC) [5]: 3.52
